Laboratory results as given in patent US11098040B2, “Compounds and methods of use” (Ferro Therapeutics, Inc., priority 2018, dated 2021).
Read-outs that look alike come from different tables or passages of the source.

How the values were obtained:
SJSA-1 = test: Cell proliferation (Alamar Blue) assay, SJSA-1 osteosarcoma, with/without ferrostatin; assay type: cell-based, human; conditions: Homo sapiens
Procedure, shortened: (§1)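 Cells seeded at 5000/well, 16-24 h, then exposed 24 h at 37° C to compound, 10-0.0005 μM in 3-fold dilutions, 1% DMSO final. Alamar Blue fluorescence (ex 540/em 590 nm) read after 1.5 h; IC50 from variable-slope sigmoidal fit.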

A431 = test: Cell proliferation (Alamar Blue) assay, A431; assay type: cell-based; conditions: Homo sapiens, A-431; Cell Line A431
Experimental: Cells (SJSA-1, 786-O and A431) were seeded (5000 cells/100 μL/well) in 96-well tissue culture plate and incubated at 37° C./5% CO2 for 16-24 hours. The cells were then treated with compounds (25 μL of 5×). The compound concentrations were 10-0.0005 μM prepared in 3-fold serial dilutions with final DMSO concentration of 1%. The plates were then incubated for 24 h at 37° C./5% CO2 in a moist environment. Then Alamar Blue™ reagent (final concentration 1×-12.5 μL) was added to each well and incubated for 1.5 hours at 37° C./5% CO2. The plates were read on fluorescence reader at 540 nm excitation and 590 nm emission wavelengths. The IC50 values were subsequently determined using a sigmoidal dose-response curve (variable slope) in GraphPad Prism® 5 software.
The cell proliferation assays for the compounds shown Table 25 was performed according to the protocols described herein, including Examples 4 and 6.

786-O = test: Cell proliferation (Alamar Blue) assay, 786-O renal cell carcinoma, with/without ferrostatin; assay type: cell-based; conditions: Homo sapiens
Procedure, shortened: as §1

A549 = test: Cell viability assay, A549 cells; assay type: cell-based; conditions: Homo sapiens
Procedure, shortened: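 Growth of A549 cells was assessed with a cell viability assay. Cells were plated at 1,000-10,000 cells/well in 96-well plates and incubated overnight at 37° C. Nine-point 3-fold DMSO dilutions, starting from 30 μM and run in duplicate, were diluted into media (final DMSO 0.25% or less). After 96 hours, CellTiter Glo luminescence was read, inhibition was calculated against DMSO controls, and IC50 was fitted in XL-fit.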

MiaPaCa-2 = test: Cell viability assay (CellTiter Glo), pancreatic carcinoma MiaPaCa-2; assay type: cell-based; conditions: Homo sapiens
Experimental: (§2) Cell viability assay was performed to assess the potency of the compounds in human cancer cell lines KP4 (pancreatic ductal adenocarcinoma), MiaPaCa-2 (pancreatic carcinoma), AsPC-1 (pancreatic adenocarcinoma, ascites), 143B (osteosarcoma), and SJSA-1 (osteosarcoma). Selected compounds were also assayed in a human breast epithelial cell line MCF-10A, a nontumorigenic cell line as a control to assess differential activity. Cells at a density of 500-5,000 cells/well were seeded in 96-well plates and incubated at 37° C. overnight. A series of 9 different concentrations of compound stocks (500×) were created by 3-fold serial dilution in DMSO. These compounds were further diluted in culture media and then added to cells so that the final DMSO concentration was equal to 0.25% or less. After 96 hours of incubation, 50 μL of CellTiter Glo reagent (Promega) was added to each well and luminescence was measured after 10 minutes using EnVision (PerkinElmer). Compounds titrated from top concentration of up to 30 μM. The select compounds were tested initially from 30 μM as the top concentration in duplicates (range of 4.6 nM-30 μM). […] Luminescence from cells treated with DMSO alone was set as Max and % of inhibition was calculated as follows: Inhibition %=(Max-Sample value)/Max*100. Data was analyzed using XL-fit software (ID Business Solutions Ltd.). IC50, relative IC50, or % of top inhibition was calculated.
The results of the assay in the pancreatic cell lines are given in Table 15a for PANC1, Table 15b for MiaPaCa-2, and Table 15c for AsPC-1.

KP4 = test: Cell viability assay (CellTiter Glo), pancreatic ductal adenocarcinoma KP4; assay type: cell-based, human; conditions: Homo sapiens
Procedure, shortened: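 Luminescent ATP readout (CellTiter Glo) after 96 h compound exposure, normalized to DMSO-treated cells as maximum. Compounds ran in duplicate, nine 3-fold steps from 30 μM down to 4.6 nM, final DMSO ≤0.25%; KP4 plated overnight at 1,000–10,000 cells/well. Outputs: IC50, relative IC50 or % top inhibition.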

MCF-10A = test: Cell viability assay (CellTiter Glo), non-tumorigenic breast epithelial cell line MCF-10A; assay type: cell-based; conditions: Homo sapiens, 96 hours
Experimental: as §2
Paclitaxel was used as the positive control for cytotoxicity.

[1] = Whole blood stability, human; assay type: in vitro ADME
Excerpt: (§3) The results of the assay on stability in blood and IC50 values for pancreatic cancer cell line KP4 are given below in Table 24.

[2] = Whole blood stability, mouse; assay type: in vitro ADME
Excerpt: as §3

[3] = SJSA-1, Cell Line SJSA-1, read-out: IC50
[4] = SJSA-1, 24 h, Alamar Blue, 24 h, 2 μM ferrostatin, read-out: SJSA-1 (IC50, μM) 2 μM Ferrostatin
[5] = SJSA-1, 24 h, Alamar Blue, 24 h, without ferrostatin, read-out: SJSA-1 (IC50, μM) Without Ferrostatin
[6] = 786-0, 24 h, Alamar Blue, 24 h, 2 μM ferrostatin, read-out: 786-O (IC50, μM) 2 μM Ferrostatin
[7] = 786-0, 24 h, Alamar Blue, 24 h, without ferrostatin, read-out: 786-O (IC50, μM) Without Ferrostatin
[8] = 786-0, Cell Line 786-O, read-out: IC50
[9] = A549, Cell Line A549, read-out: IC50
[10] = MIA PaCa-2, pancreatic carcinoma, 96 hours, CellTiter Glo, read-out: IC50 MiaPaCa-2
[11] = Cell Line Mia PaCa-2, read-out: IC50
[12] = KP-4, Cell Line KP4, read-out: IC50

IC50 (SJSA-1; [3]) [µM] | IC50 (A431) [nM] | IC50 (MiaPaCa-2; [10]) [nM] | Structure (SMILES) | further results
0.011 | 2730 | – | C#CCOc1ccc2[nH]c3c(c2c1)C[C@H](C(=O)OC)N(C(=O)CCl)[C@H]3c1ccc(C(=O)NC23CC4CC(CC(C4)C2)C3)cc1 [Example 211] | –
0.03 | 1580 | – | C[C@H]1Cc2c([nH]c3ccccc23)[C@H](c2ccc(C(=O)NC3CCC3)nc2)N1C(=O)CCl [Compound 214, 5-((1S,3S)-2-(2-chloroacetyl)-3-methyl-2,3,4,9-tetrahydro-1H-pyrido[3,4-b]indol-1-yl)-N-cyclobutylpicolinamide] | IC50 (SJSA-1; [4]): 4.15 µM; IC50 (SJSA-1; [5]): 0.03 µM; IC50 (786-O; [6]): 4.72 µM; IC50 (786-O; [7]): 0.019 µM; IC50 (786-O; [8]): 0.019 µM
0.028 | 8220 | – | CC1CN(c2ccc([C@H]3c4[nH]c5ccccc5c4C[C@H](C)N3C(=O)CCl)cc2)CCO1 (stereo partly shown) [Compound 215] | IC50 (SJSA-1; [4]): 9.41 µM; IC50 (SJSA-1; [5]): 0.028 µM; IC50 (786-O; [6]): 9.88 µM; IC50 (786-O; [7]): 0.018 µM; IC50 (786-O; [8]): 0.018 µM
0.045 | > 10000 | – | COC[C@H]1Cc2c([nH]c3ccccc23)[C@H](c2ccc(N3CCOCC3)cc2)N1C(=O)CCl [Compound 232] | IC50 (786-O; [8]): 0.025 µM
0.081 | 1550 | – | C[C@H]1Cc2c([nH]c3ccccc23)[C@H](c2ccc(N3CCS(=O)(=O)CC3)cc2)N1C(=O)CCl [Compound 210, 2-chloro-1-((1S,3S)-1-(4-(1,1-dioxidothiomorpholino)phenyl)-3-methyl-1,3,4,9-tetrahydro-2H-pyrido[3,4-b]indol-2-yl)ethan-1-one] | IC50 (SJSA-1; [4]): 9.55 µM; IC50 (SJSA-1; [5]): 0.081 µM; IC50 (786-O; [6]): > 10 µM; IC50 (786-O; [7]): 0.062 µM; IC50 (786-O; [8]): 0.062 µM
0.254 | 8110 | – | C[C@H]1Cc2c([nH]c3ccccc23)[C@H](c2ccncc2)N1C(=O)CCl [Example 171] | –
6.8 | 6000 | – | C[C@H]1Cc2c([nH]c3ccccc23)[C@H](c2ccc(CN3CCOCC3)cc2)N1C(=O)CCl [Compound 132] | IC50 (786-O; [8]): 3.8 µM
1.4 | > 10000 | – | C[C@H]1Cc2c([nH]c3ccccc23)[C@H](c2cnn(C3CCOCC3)c2)N1C(=O)CCl [Example 158] | –
0.019 | 3280 | – | CCS(=O)(=O)N1CCN(c2ccc([C@H]3c4[nH]c5ccccc5c4C[C@H](C)N3C(=O)CCl)cc2)CC1 [Example 209] | –
> 10 | 2800 | – | CC1CN(c2ccc([C@@H]3c4[nH]c5ccccc5c4C[C@H](C)N3C(=O)CCl)cc2)CCO1 (stereo partly shown) [Example 127] | –
4.7 | 5400 | – | C[C@H]1Cc2c([nH]c3ccccc23)C(c2ccc(S(N)(=O)=O)cc2)N1C(=O)CCl (stereo partly shown) [Example 123] | –
– | – | 5570 | COC(=O)[C@H]1Cc2c([nH]c3ccccc23)[C@H](c2ccc(C(=O)OC(C)(C)C)cc2)N1C(=O)C(Cl)Cl [Compound 263] | IC50 (A549; [9]): 6220 nM; IC50 (MiaPaCa-2; [11]): 5570 nM; IC50 (KP4; [12]): 10.4 µM
– | – | 759 | CN(C)C(=O)[C@H]1Cc2c([nH]c3ccccc23)[C@H](c2ccc(NC(=O)OC(C)(C)C)cc2)N1C(=O)CCl [Example 56] | IC50 (MCF-10A): 1510 nM
– | – | 3630 | CN(C)C(=O)c1ccc([C@H]2c3[nH]c4ccccc4c3C[C@H](C(=O)N(C)C)N2C(=O)CCl)cc1 [Example 38] | IC50 (MCF-10A): 19600 nM
– | – | 591 | CN(C)C(=O)[C@H]1Cc2c([nH]c3ccccc23)[C@H](c2ccc(S(C)(=O)=O)cc2)N1C(=O)CCl [Example 59] | IC50 (MCF-10A): 8780 nM
0.091 | 2990 | – | C#CC(=O)N1[C@@H](c2ccc(S(=O)(=O)NC3CC3)cc2F)c2[nH]c3ccccc3c2C[C@@H]1C [Example 174] | –
– | – | 246 | COC(=O)[C@H]1Cc2c([nH]c3ccccc23)[C@H](c2ccc(O)cc2)N1C(=O)CCl [Example 265] | IC50 (MiaPaCa-2; [11]): 260 nM; IC50 (KP4; [12]): 0.16 µM
– | – | 1320 | COC(=O)[C@H]1Cc2c([nH]c3ccccc23)[C@H](c2ccc(C(=O)NCCN)cc2)N1C(=O)CCl [Example 15] | –
– | 2510 | – | CC1CN(c2ccc([C@H]3c4[nH]c5ccccc5c4C[C@H](C)N3C(=O)CCl)cc2)CC(C)O1 (stereo partly shown) [Example 212] | IC50 (786-O; [8]): 0.008 µM
0.093 | 10000 | – | C[C@H]1Cc2c([nH]c3ccccc23)[C@H](c2ccc(N3CCOCC3)nc2)N1C(=O)CCl [Example 220] | –
– | – | 217 | CN(C)C(=O)[C@H]1Cc2c([nH]c3ccccc23)[C@H](c2ccc(C(=O)N(CCC(=O)OC(C)(C)C)C(C)(C)C)cc2)N1C(=O)CCl [Example 54] | IC50 (A549; A549, A549, unit printed as PM, read-out: IC50 for A549): 790 nM; IC50 (MCF-10A): 560 nM
– | – | 858 | COC(=O)[C@H]1Cc2c([nH]c3ccccc23)[C@H](c2ccc(C(=O)OC(C)(C)C)cc2)N1C(=O)/C=C/CCl [Example 25] | –
– | – | – | COC(=O)c1ccc([C@H]2c3[nH]c4ccccc4c3C[C@H](C(=O)OC)N2C(=O)/C=C/CN(C)C)cc1 [Compound 273] | IC50 (A549; [9]): 3230 nM; IC50 (MiaPaCa-2; [11]): 10 nM; IC50 (KP4; [12]): 1.71 µM
– | – | 40 | COC(=O)C1CCC([C@H]2c3[nH]c4ccccc4c3C[C@H](C(=O)N(C)C)N2C(=O)CCl)CC1 (stereo partly shown) [Example 41] | IC50 (MCF-10A): 40 nM
– | – | 243 | COCCN(C(=O)c1ccc([C@H]2c3[nH]c4ccccc4c3C[C@H](C(=O)N(C)C)N2C(=O)CCl)cc1)C(C)(C)C [Example 52] | IC50 (A549; A549, A549, read-out: IC50 for A549): 280 to 360 nM; IC50 (MCF-10A): 180 nM
– | – | 3000 | COC(=O)[C@H]1Cc2c([nH]c3ccccc23)[C@@H](c2ccc(C(=O)NCCN3CCOCC3)cc2)N1C(=O)CCl [Example 27a] | Whole Blood Stability % Remaining at 37° C. Human ([1]; 0 min): 100.0%; Whole Blood Stability % Remaining at 37° C. Human ([1]; 30 min): 54.1%; Whole Blood Stability % Remaining at 37° C. Human ([1]; 60 min): 40.9%; IC50 (KP4; KP-4, 96 h, pancreatic cancer cell line KP4, 96 hours, CellTiter Glo, read-out: IC50 μM KP4): 0.1 to 0.5 µM; Whole Blood Stability % Remaining at 37° C. Mouse ([2]; 0 min): 100.0%; Whole Blood Stability % Remaining at 37° C. Mouse ([2]; 30 min): 92.5%; Whole Blood Stability % Remaining at 37° C. Mouse ([2]; 60 min): 81.1%
– | – | 3150 | COC(=O)[C@H]1Cc2c([nH]c3ccccc23)[C@@H](c2ccc(S(=O)(=O)N(C)C)cc2)N1C(=O)CCl [Example 23a] | –
> 10 | 7000 | – | C[C@H]1Cc2c([nH]c3ccccc23)[C@@H](c2cnn(C3CCOCC3)c2)N1C(=O)CCl [Example 159] | –
